Measured values taken from patent US11911348B2, “Therapeutic agent for cancer” (THERAVALUES CORPORATION, priority 2014, dated 2024).

System: MC38 mouse colon cancer tumor
Assay: Tumor size of subcutaneously implanted MC38 mouse colon cancer in mice
Type: in vivo
Source text: As the test animals, 6-week old […] mice (female, weighed around 20 g, CLEA Japan, Inc.) were purchased, and used after being acclimated to the environment for two to five days. • (2) Transplantation Method
In the right abdomen of the test animals, 5×10^5 mouse colon cancer cell lines (MC38) were subcutaneously implanted by using a 27 G needle. • (3) Administration method
Into the mice (n=[…] to 8) to which the colon cancer cell lines (MC 38) had been inoculated, every day from the 3rd day after the inoculation to the last day of the experiment, 200 μl of a curcumin solution prepared by suspending a commercially available curcumin 10%-containing pharmaceutical preparation (Theracurmin® CR-031P, manufactured by Theravalues Corporation) (Examples 1 to 4) in water or by suspending the synthetic curcumin-HPMC complex prepared as described below (Example 5) in water (prepared so that the curcumin content as 5 mg or 30 mg per 1 kg body weight) was forcibly administered orally to the mice using a feeding needle.
In addition, as so the control groups, a curcumin single administration group (Comparative Examples 1, 4, 6, and 10) in a case where Rat IgG2b (clone: LTF-2 manufactured by Bio X Cell) was intraperitoneally administered in place of the anti-PD-L1 antibody (clone: 10F·9G2 manufactured by Bio X Cell) or the anti-PD-1 antibody (clone: RMP1-14 manufactured by Bio X. Cell); an anti-PD-L1 antibody single administration group (Comparative Examples 2, 5 and 7) in a case where water was administered in place of the curcumin solution, and an anti-PD-L1 antibody was administered; an anti-PD-1 antibody single administration group (Comparative Examples 9 and 11) in a case where water was administered in place of the curcumin solution, and an anti-PD-1 antibody was administered; and a water administration group (Comparative Example 3) in a case where water was administered in place of the curcumin solution, and Rat IgG2b (clone: LTF-2 manufactured by Bio X Cell) was administered in place of the anti-PD-L1 antibody were prepared. • (4) Evaluation of Tumor Size
The tumor size of the test animals was measured by measuring the long diameter and the short diameter of the tumor with a vernier caliper every 2 to 4 days, and calculated by the following equation. Tumor size=the long diameter×the short diameter×the short diameter÷2 (Mathematical Formula 1) • (5) Preparation method of synthetic curcumin-HPMC complex

COc1cc(/C=C/C(=O)/C=C(O)/C=C/c2ccc(O)c(OC)c2)ccc1O [curcumin]
size of the MC38 mouse colon cancer tumor compared with the control (FIG. 3, curcumin 5 mg/kg/mouse singly administered): same size as that of the control
antiproliferative effect of the colon cancer tumor (FIG. 3, curcumin 5 mg/kg/mouse, anti-PD-L1 antibody on 7th, 10th, 13th days): not recognized
size of the MC38 mouse colon cancer tumor compared with the control (FIG. 4, curcumin 30 mg/kg/mouse singly administered): same size as that of the control
antiproliferative effect of the colon cancer tumor (FIG. 4, curcumin 30 mg/kg/mouse, anti-PD-L1 antibody): not recognized
